Results reported in patent US20100267561A1, “HERBICIDAL PYRIDAZINONE DERIVATIVES” (priority 2007, published 2010).

Assays:
Type in all cases: in vivo
[1] = tested on: common (oilseed) sunflower (Helianthus annuus); experiment: Test B pre-/postemergence plant response; settings: Preemergence
Excerpt: (§1) Seeds of plant species selected from blackgrass (Alopecurus myosuroides), downy bromegrass (Bromus tectorum), green foxtail (Setaria viridis), Italian ryegrass (Lolium multiflorum), wheat (Triticum aestivum), wild oat (Avena fatua), catchweed bedstraw (Galium aparine), bermudagrass (Cynodon dactylon), surinam grass (Brachiaria decumbens), cocklebur (Xanthium strumarium), corn (Zea mays), large crabgrass (Digitaria sanguinalis), woolly cupgrass (Eriochloa villosa), giant foxtail (Setaria faberii), goosegrass (Eleusine indica), johnsongrass (Sorghum halepense), kochia (Kochia scoparia), lambsquarters (Chenopodium album), morningglory (Ipomoea coccinea), eastern black (E.B.) nightshade (Solanum ptycanthum), yellow nutsedge (Cyperus esculentus), pigweed (Amaranthus retroflexus), common ragweed (Ambrosia elation), Russian thistle (Salsola iberica), soybean (Glycine max), common (oilseed) sunflower (Helianthus annuus), and velvetleaf (Abutilon theophrasti) were planted and treated preemergence with test chemicals formulated in a non-phytotoxic solvent mixture which included a surfactant.
(§2) At the same time, plants selected from these crop and weed species and also winter barley (Hordeum vulgare), canarygrass (Phalaris minor), chickweed (Stellaria media) and windgrass (Apera spica-venti) were treated with postemergence applications of some of the test chemicals formulated in the same manner. Plants ranged in height from 2 to 18 cm (1- to 4-leaf stage) for postemergence treatments.
(§3) Plant species in the flooded paddy test consisted of rice (Oryza sativa), umbrella sedge (Cyperus difformis), ducksalad (Heteranthera limosa) and barnyardgrass (Echinochloa crus-galli) grown to the 2-leaf stage for testing. At time of treatment, test pots were flooded to 3 cm above the soil surface, treated by application of test compounds directly to the paddy water, and then maintained at that water depth for the duration of the test. Treated plants and controls were maintained in a greenhouse for 13 to 15 days, after which time all species were compared to controls and visually evaluated. Plant response ratings, summarized in Table B, are based on a scale of 0 to 100 where 0 is no effect and 100 is complete control. A dash (-) response means no test result.

[2] = tested on: morningglory (Ipomoea coccinea); experiment: Test B pre-/postemergence plant response
Excerpt: as §1, §2, §3

[3] = tested on: wheat (Triticum aestivum); experiment: Test B pre-/postemergence plant response
Excerpt: as §1, §2, §3

[4] = tested on: large crabgrass (Digitaria sanguinalis); experiment: Test B pre-/postemergence plant response
Excerpt: as §1, §2, §3

corn (Zea mays) = experiment: Test B pre-/postemergence plant response
Excerpt: as §1, §2, §3

[5] = tested on: downy bromegrass (Bromus tectorum); experiment: Test B pre-/postemergence plant response
Excerpt: as §1, §2, §3

[6] = tested on: green foxtail (Setaria viridis); experiment: Test B pre-/postemergence plant response
Excerpt: as §1, §2, §3

[7] = tested on: surinam grass (Brachiaria decumbens); experiment: Test B pre-/postemergence plant response
Excerpt: as §1, §2, §3

wild oat (Avena fatua) = experiment: Test B pre-/postemergence plant response
Excerpt: as §1, §2, §3

[8] = tested on: velvetleaf (Abutilon theophrasti); experiment: Test B pre-/postemergence plant response
Excerpt: as §1, §2, §3

[9] = tested on: ducksalad (Heteranthera limosa); experiment: Test B flooded paddy test plant response
How it was run: (§4)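 2-leaf plants; pots flooded 3 cm above soil; compound added to paddy water; depth maintained. Greenhouse 13–15 d. Visual rating vs controls, 0 (no effect) to 100 (complete control); dash = no result.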

[10] = tested on: umbrella sedge (Cyperus difformis); experiment: Test B flooded paddy test plant response
How it was run: as §4

[11] = tested on: barnyardgrass (Echinochloa crus-galli); experiment: Test B flooded paddy test plant response
How it was run: as §4

rice (Oryza sativa) = experiment: Test B flooded paddy test plant response
How it was run: as §4

[12] = Postemergence, 31 g ai/ha, scale 0 to 100, 0 no effect, 100 complete control
[13] = Postemergence, 62 g ai/ha, scale 0 to 100
[14] = Postemergence, 125 g ai/ha, scale 0 to 100
[15] = Postemergence, 250 g ai/ha, scale 0 to 100
[16] = Preemergence, 31 g ai/ha, 0 to 100 scale, 0 no effect, 100 complete control
[17] = Preemergence, 62 g ai/ha, scale 0 to 100
[18] = Preemergence, 125 g ai/ha, scale 0 to 100
[19] = Preemergence, 250 g ai/ha, scale 0 to 100
[20] = Flood (flooded paddy test), 62 g ai/ha, scale 0 to 100, 0 no effect, 100 complete control
[21] = Flood (flooded paddy test), 125 g ai/ha, scale 0 to 100, 0 no effect, 100 complete control
[22] = Flood (flooded paddy test), 250 g ai/ha, scale 0 to 100, 0 no effect, 100 complete control
[23] = Flood, 31 g ai/ha, scale 0 to 100

SMILES: Cc1cc(-c2ccc(Br)cc2)nn1-c1c(O)cnn(C)c1=O [Compound 4]
- Plant response rating, Sunflower ([1]; 31 g ai/ha, 0 to 100 scale, 0 no effect, 100 complete control): 0
- Plant response rating, Sunflower ([1]; 62 g ai/ha, scale 0 to 100): 0
- Plant response rating, Sunflower ([1]; 125 g ai/ha, scale 0 to 100): 0
- Plant response rating, Sunflower ([1]; 250 g ai/ha, scale 0 to 100): 70
- Plant response rating, Morningglory [2, 12]: 0
- Plant response rating, Morningglory [2, 13]: 0
- Plant response rating, Morningglory [2, 14]: 0
- Plant response rating, Morningglory [2, 15]: 0
- Plant response rating, Morningglory [2, 16]: 0
- Plant response rating, Morningglory [2, 17]: 0
- Plant response rating, Morningglory [2, 18]: 0
- Plant response rating, Morningglory [2, 19]: 30
- Plant response rating, Wheat [3, 12]: 90
- Plant response rating, Wheat [3, 13]: 100
- Plant response rating, Wheat [3, 14]: 100
- Plant response rating, Wheat [3, 15]: 100
- Plant response rating, Wheat [3, 16]: 60
- Plant response rating, Wheat [3, 17]: 95
- Plant response rating, Wheat [3, 18]: 100
- Plant response rating, Wheat [3, 19]: 100
- Plant response rating, Crabgrass, Large [4, 12]: 100
- Plant response rating, Crabgrass, Large [4, 13]: 100
- Plant response rating, Crabgrass, Large [4, 14]: 100
- Plant response rating, Crabgrass, Large [4, 15]: 100
- Plant response rating, Crabgrass, Large [4, 16]: 100
- Plant response rating, Crabgrass, Large [4, 17]: 100
- Plant response rating, Crabgrass, Large [4, 18]: 100
- Plant response rating, Crabgrass, Large [4, 19]: 100
- Plant response rating, Corn (corn (Zea mays); [12]): 90
- Plant response rating, Corn (corn (Zea mays); [13]): 95
- Plant response rating, Corn (corn (Zea mays); [14]): 100
- Plant response rating, Corn (corn (Zea mays); [15]): 100
- Plant response rating, Corn (corn (Zea mays); [16]): 85
- Plant response rating, Corn (corn (Zea mays); [17]): 95
- Plant response rating, Corn (corn (Zea mays); [18]): 98
- Plant response rating, Corn (corn (Zea mays); [19]): 100
- Plant response rating, Bromegrass, Downy [5, 12]: 0
- Plant response rating, Bromegrass, Downy [5, 13]: 5
- Plant response rating, Bromegrass, Downy [5, 14]: 20
- Plant response rating, Bromegrass, Downy [5, 15]: 40
- Plant response rating, Bromegrass, Downy [5, 16]: 70
- Plant response rating, Bromegrass, Downy [5, 17]: 70
- Plant response rating, Bromegrass, Downy [5, 18]: 98
- Plant response rating, Bromegrass, Downy ([5]; Preemergence, 250 g ai/ha, scale 0 to 100 (0 no effect, 100 complete control)): 100
- Plant response rating, Foxtail, Green [6, 12]: 95
- Plant response rating, Foxtail, Green [6, 13]: 100
- Plant response rating, Foxtail, Green [6, 14]: 100
- Plant response rating, Foxtail, Green [6, 15]: 100
- Plant response rating, Foxtail, Green [6, 16]: 100
- Plant response rating, Foxtail, Green [6, 17]: 100
- Plant response rating, Foxtail, Green [6, 18]: 100
- Plant response rating, Foxtail, Green [6, 19]: 100
- Plant response rating, Surinam Grass [7, 12]: 100
- Plant response rating, Surinam Grass [7, 13]: 100
- Plant response rating, Surinam Grass [7, 14]: 100
- Plant response rating, Surinam Grass [7, 15]: 100
- Plant response rating, Surinam Grass [7, 16]: 100
- Plant response rating, Surinam Grass [7, 17]: 100
- Plant response rating, Surinam Grass [7, 18]: 100
- Plant response rating, Surinam Grass [7, 19]: 100
- Plant response rating, Oat, Wild (wild oat (Avena fatua); [12]): 98
- Plant response rating, Oat, Wild (wild oat (Avena fatua); [13]): 100
- Plant response rating, Oat, Wild (wild oat (Avena fatua); [14]): 100
- Plant response rating, Oat, Wild (wild oat (Avena fatua); [15]): 100
- Plant response rating, Oat, Wild (wild oat (Avena fatua); [16]): 65
- Plant response rating, Oat, Wild (wild oat (Avena fatua); [17]): 70
- Plant response rating, Oat, Wild (wild oat (Avena fatua); [18]): 85
- Plant response rating, Oat, Wild (wild oat (Avena fatua); [19]): 95
- Plant response rating, Velvetleaf [8, 12]: 5
- Plant response rating, Velvetleaf [8, 13]: 5
- Plant response rating, Velvetleaf [8, 14]: 20
- Plant response rating, Velvetleaf [8, 15]: 45
- Plant response rating, Velvetleaf [8, 16]: 0
- Plant response rating, Velvetleaf [8, 17]: 0
- Plant response rating, Velvetleaf [8, 18]: 40
- Plant response rating, Velvetleaf [8, 19]: 50
- Plant response rating, Ducksalad [9, 20]: 75
- Plant response rating, Ducksalad [9, 21]: 85
- Plant response rating, Ducksalad [9, 22]: 85
- Plant response rating, Ducksalad [9, 23]: 0
- Plant response rating, Sedge, Umbrella [10, 20]: 60
- Plant response rating, Sedge, Umbrella [10, 21]: 90
- Plant response rating, Sedge, Umbrella [10, 22]: 100
- Plant response rating, Sedge, Umbrella [10, 23]: 40
- Plant response rating, Barnyardgrass [11, 20]: 60
- Plant response rating, Barnyardgrass [11, 21]: 70
- Plant response rating, Barnyardgrass [11, 22]: 75
- Plant response rating, Barnyardgrass [11, 23]: 0
- Plant response rating, Rice (rice (Oryza sativa); [20]): 40
- Plant response rating, Rice (rice (Oryza sativa); [21]): 70
- Plant response rating, Rice (rice (Oryza sativa); [22]): 80
- Plant response rating, Rice (rice (Oryza sativa); [23]): 15
